Measured values from US4038287A, “Compounds of allantoin with basic amino acids” (Kawaken Fine Chemicals Co., Ltd., priority 1975, dated 1977).
Converted amounts (≈) assume the structure as drawn.

Columns and labels:
Assay type in all cases: physicochemical
[1] = Dissolved amount of allantoin component of the compounds; conditions: 20° C.
Excerpt: (§1) The solubility of pure allantoin at room temperature is 0.6 wt. % in water, 1.0 wt. % in glycerol and 0.3 wt. % in 50 vol. % aqueous solution of ethyl alcohol. In contrast, the solubilities of the compounds of the present invention in the aforementioned solvents are shown in Table I. It will be understood from Table I that all compounds of the present invention can be dissolved to make present in the solution much more allantoin than can be obtained by dissolving allantoin, per se.
Also, comparing the dissolved amount of the allantoin component of the compounds according to the present invention and that allantoin, per se, the former is about fifteen times greater than that of allantoin, per se, and the effects of allantoin are thereby improved.

[2] = pH of a saturated solution in water
Excerpt: Referring to the pH of a saturated solution obtained by dissolving the compounds of the present invention, respectively, in water, the solution pH of allantoin/arginine molecular compound was 8.5, that of allantoin/ornithine molecular compound was 9.0 and that of allantoin/lysine compound was 8.9. When the pH of the respective saturated solutions of compounds according to the invention was adjusted, with HCl solution, to the pH value of a saturated solution of pure allantoin in water, namely 5 to 6, and even though the saturated solutions of the compounds according to the invention contain a higher concentration of allantoin than that of a saturated solution of pure allantoin, no crystals of allantoin precipitated from the respective solutions of compounds according to the invention.

[3] = Solubility (wt.% at 20° C.) in water and alcohol-water solutions; conditions: for solubility: water
Excerpt: as §1
Solubility (wt.% at 20° C.)

physchem = assay: physchem
Excerpt: as §1

Row | Structure (SMILES) | Dissolved amount of allantoin component, 50% ethyl alcohol-water solution [1] | Dissolved amount of allantoin component, 50% isopropyl alcohol-water solution [1] | Dissolved amount of allantoin component, 50% methyl alcohol-water solution [1] | Dissolved amount of allantoin component, water [1] | pH of a saturated solution in water [2] | Solubility in 50% ethyl alcohol-water solution [3] | Solubility in 50% isopropyl alcohol-water solution [3] | Solubility in 50% methyl alcohol-water solution [3] | solubility [3] | Solubility of pure allantoin in 50 vol. % aqueous solution of ethyl alcohol (physchem) | Solubility of pure allantoin in glycerol (physchem) | solubility (physchem; water)
1 | NC(=O)NC1NC(O)(NCCCC(N)C(=O)O)NC1=O (stereo not shown) [Allantoin/ornithine compound (B)] | 6.7 wt.% | 3.6 wt.% | 14.3 wt.% | 22.1 wt.% | 9.0 | 12.3 wt.% | 6.6 wt.% | 26.2 wt.% | 405 mg/mL (≈ 1400 mM) |  |  | 
2 | NC(=O)NC1NC(=O)NC1=O (stereo not shown) [Allantoin, allantoin] |  |  |  |  |  | 0.3 wt.% | 0.1 wt.% | 0.5 wt.% | 6 mg/mL (≈ 37.9 mM) | 0.3 wt. % | 1.0 wt. % | 6 mg/mL (≈ 37.9 mM)
3 | N=C(NCCCC(N)C(=O)O)NC1(O)NC(=O)C(NC(N)=O)N1 (stereo not shown) [Allatoin/arginine (1:1) compound (A)] | 9.4 wt.% | 4.6 wt.% | 20.2 wt.% | 28.2 wt.% | 8.5 | 19.8 wt.% | 9.9 wt.% | 43.3 wt.% | 603 mg/mL (≈ 1810 mM) |  |  | 
4 | NC(=O)NC1NC(O)(NCCCCC(N)C(=O)O)NC1=O (stereo not shown) [Allantoin/lysine compound (C)] | 5.0 wt.% | 2.5 wt.% | 11.3 wt.% | 15.6 wt.% | 8.9 | 9.6 wt.% | 4.8 wt.% | 21.7 wt.% | 300 mg/mL (≈ 986 mM) |  |  | 
